Data from patent publication US8334413B2, “Topical compositions and methods for epithelial-related conditions” (Signum Biosciences, Inc., priority 2004, dated 2012).

What was measured:
mouse ear [1] = assay: TPA dose response, mouse ear edema; format: in vivo, Swiss Webster mice; conditions: TPA 0.25 to 1.75 μg/20 μl in acetone, topical, 5.5 hours, 6 mm ear punch
Method: Increasing concentrations of TPA dissolved in acetone were applied with the aid of a micropipetter onto the right ear of each of the five 6-8 week old, male Swiss Webster mice used in this analysis. Ten microliters were spread evenly onto the inner and outer surfaces using the pipette tip. The mice were then returned to their cages. The contralateral ear was treated only with acetone. After 5.5 hours, the mice were sacrificed and 6 mm punches were taken from each ear and weighed. Edema response was expressed as a percent increase in the treated ear's weight over the untreated ear. The dose response curve, as well as an ED50 value, was determined using the Lichtfield method (Lichtfield J T W. F., A simplified method of evaluating dose-effect experiments, Journal of Pharmacology and Experimental Therapeutics, 1948, 96: P. 99-113).

TPA-induced MPO activity [2] = assay: TPA-induced MPO activity at different application times; format: in vivo, mice; conditions: 1 μg/20 μl TPA; 1 mg/20 μl AFC at various times before and after TPA
Method: In this example, both ears of six mice were treated with a 1 μg/20 μl dose of TPA in acetone.

[3] = test system: delayed-type hypersensitivity; assay: DNFB delayed-type hypersensitivity, mouse ear; format: in vivo, mice; conditions: AFC 0.5 hr before or 15 min after DNFB challenge, assay 5 hr later
Text: The mouse ear model, described above, is modified to assay the effect of anti-inflammatory agents in an immune based inflammation model (See Tramposch, K. M., Skin Inflammation, in In Vivo Models of Inflammation, M. L. Morgan D W, Editor. 1999, Birkhauser Verlag. p. 179-20 and Chapman, J. R., Z. Ruben, and G. M. Butchko, Histology of and quantitative assays for oxazolone-induced allergic contact dermatitis in mice. Am J Dermatopathol, 1986. 8(2): p. 130-8). In this model, a sensitizing dose of dinitrofluorobenzene (“DNFB”) 1-3% in acetone is applied topically according to a modification of the method by Back et al. (See Back, O. and T. Egelrud, Topical glucocorticoids and suppression of contact sensitivity. A mouse bioassay of anti-inflammatory effects. Br J Dermatol, 1985. 112(5): p. 539-45 and Bailey, S. C., et al., A novel contact hypersensitivity model for rank-ordering formulated corticosteroids. Inflamm Res, 1995. 44 Suppl 2: p. S162-3) to the shaved bellies of mice to elicit an immune response. Mice are challenged on day 5 with 40 μl of 0.5-1% DNFB to each ear. […] The ears are assayed for edema or neutrophil infiltration 5 hr later. Dexamethasone is used as a positive control. Five days later, the ears are challenged topically with a dose of DNFB insufficient to produce contact irritation. Simultaneously, cell infiltration studies are initiated. […]

human skin = assay: SDS irritant patch test on human skin, AFC pre-applied; format: in vivo; conditions: 140 mM AFC aqueous formulation pre-applied
Method: An irritant was applied to the middle of the upper back of a human subject using a 0.2 ml 20% SDS solution and a Hill-Top Chamber patch with Webril pad. […] Patches 1a and 2a were removed after 2 hours, while patches 1b and 2b were removed after 2 hours and 30 minutes. High levels of irritation were visible in patch sites 2a and 2b.

[4] = biological target: membrane-associated polyisoprenoid methyl transferase (Homo sapiens, UniProt O60725); conditions: cited from earlier work
mouse ear [5] = assay: AFC in acetone alone, mouse ear edema (irritancy); format: in vivo, mice; conditions: topical, dose up to 32 mg/20 μl, 5.5 hours
Method: The AFC inventive compositions were spread evenly with a pipette tip. Each contralateral ear was treated with only acetone in the same manner. The mice then were returned to their cages. After 5.5 hours, mice were sacrificed and 6 mm punches were taken from each ear and weighed. Edema response was expressed as the percent increase in the treated ear's weight over the untreated (acetone, vehicle only) ear.

TPA-induced MPO activity [6] = assay: TPA-induced MPO activity in the contralateral vehicle-treated ear (systemic effect); format: in vivo, mice
Method: These included dexamethasone, a steroid, and indomethasone, a non-steroid anti-inflammatory drug, which targets cycloxygenases. The action of AFC in this model was, therefore, compared to that of dexamethasone and indomethasone. Each of these agents were tested using the same protocols used to test AFC.

TPA-induced MPO activity [7] = assay: TPA-induced neutrophil infiltration, MPO assay; format: in vivo, Swiss Webster male mice
Method: Neutrophil-infiltration Assay: Swiss Webster male mice (n=6) were treated with 1 μg/20 μl of TPA as described above in order to assess whether or not TPA induced neutrophil infiltration. Acetone was used as a control. TPA was administered as described above. The mice were returned to their cages for 24 hrs to allow neutrophil infiltration, then sacrificed by cervical dislocation. The ears were immediately removed for punch biopsy, and punches were fixed for subsequent histological analysis and MPO enzymatic assay.
MPO Assay: This assay measures myeloperoxidase, (“MPO”) which is packaged in the primary granules of mature granulocytes including the neutrophil. Thus, the amount of MPO in the ear is proportional to the number of infiltrating neutrophils.
MPO enzyme activity of the ears was assayed using the technique detailed by Griffiths and coworkers (1988). To conduct the assay, each ear was homogenized in 1.0 ml of cetyltrimethylammonium bromide buffer for 5 sec using a Pro 200 tissue blender (Pro Scientific, Inc., Oxford, Conn.) at setting 5. These samples were then centrifuged for 5 minutes at 15,000 rpm in a 5415 Eppendorf microcentrifuge. Triplicate 20 microliter aliquots of supernatant were added to 200 microliters of reaction mixture (1.25 ml 1M Potassium Phosphate, 4.175 mg o-dianisidine dihydrochloride and 5 μl of 1% peroxide in a final volume of 25 ml). Absorbance at 450 nm was then measured at room temperature at three 60 second intervals using Bio-Kinetics Reader EL 312E (Bio-Tek Instruments). Activity, which was determined by a Bradford assay of the homogenate (BioRad Protein Assay, BioRad Laboratories, Inc. Hercules, Calif.) was expressed as units MPO per mg tissue +/−standard error.
(§1) Two micrograms of TPA in 20 μl of acetone was applied onto both ears of each mouse to induce neutrophil infiltration. […] After 24 hours, the mice were sacrificed.

TPA-induced edema = assay: TPA-induced edema, murine ear acute contact irritation model; format: in vivo, mice; conditions: 2 μg TPA/20 μl acetone, AFC 15 min later, topical, 5.5 hours
Method: In order to assess the effects of the inventive composition on TPA-induced edema, 2 μg of TPA in 20 μl acetone was applied with the aid of a micropipetter onto both ears of each of 6 mice. The mice were returned to their cages. […] 20 μl of an acetone vehicle was applied similarly to the left ear of each mouse as an internal negative control. After treatment, the mice were returned to their cages for 5.5 hours. The mice were sacrificed by cervical dislocation. The ears were immediately removed at their base and a 6 mm diameter punch biopsy was taken from the center of each ear. The ear punch was weighed on an analytical balance for edema measurements as described above.

[8] = test system: TPA-induced neutrophil infiltration; assay: TPA-induced neutrophil infiltration, neutrophil counting assay (histology); format: in vivo, mice; conditions: 24 hours
Method: Neutrophil Counting Assay: Ear punches buffered in 10% formalin in PBS at ambient temperature for a minimum of 24 hrs. were sectioned and stained with Hematoxilin & Eosin (“H&E”). The number of neutrophils, identified by their multilobular nuclei, in 6 randomly 100× magnified fields distributed along the length of the ear were manually counted. The results are expressed as the average number per field for each ear.
as §1

TPA-induced erythema = assay: TPA-induced erythema, mouse ear; format: in vivo; conditions: 1 μg/20 μl TPA, 1 mg/20 μl AFC after 1 hour, photo 23 hours later
Method: For this example, both ears of a mouse were treated with a 1 μg/20 μl dose of TPA in acetone. […] The photo was taken 23 hours later using a Nikon D70 digital camera.

chronic irritation = assay: Chronic irritation by multiple TPA applications, mouse ear; format: in vivo, mice; conditions: AFC in acetone, applied 6 hr apart on days 7, 8 and 9; TPA days 0, 2, 4, 7, 9
Method: The effectiveness of the inventive compositions against established chronic irritation is assayed using a modification of the technique of Stanley P L et al., Mouse skin inflammation induced by multiple topical application 12-O-tetradeconoyphorbol-13-acetate. Skin Pharmacol. 1991, 4: p 262-271. (1991). Both ears of each mouse are treated with TPA in acetone, as above, in a series of 5 applications on the mornings of days 0, 2, 4, 7, and 9. […] Punches of the ears are taken the afternoon of the tenth day and prepared, as above, for the edema assay and the infiltration of neutrophils. Total granulocyte infiltration is assayed by measuring MPO activity. Macrophage infiltration is determined immunocytologically using the MOMA-2 antibody. Hydrocortisone, which is known to reduce inflammatory edema granulation infiltration and microphage infiltration, is used as a positive control.

[9] = test system: neutrophil, macrophage, and platelet responses; conditions: cited from earlier work
[10] = 2 μg TPA/20 μl acetone, AFC 15 min later, topical, 24 hours

membrane-associated polyisoprenoid methyl transferase, sequence (O60725 whole entry): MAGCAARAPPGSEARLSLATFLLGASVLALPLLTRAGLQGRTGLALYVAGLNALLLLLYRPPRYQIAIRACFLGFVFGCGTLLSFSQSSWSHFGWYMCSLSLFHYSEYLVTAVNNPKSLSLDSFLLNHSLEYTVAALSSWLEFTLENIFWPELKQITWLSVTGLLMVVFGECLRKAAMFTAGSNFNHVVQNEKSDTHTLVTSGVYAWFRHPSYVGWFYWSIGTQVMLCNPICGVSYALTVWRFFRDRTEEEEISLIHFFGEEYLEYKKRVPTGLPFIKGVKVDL

In the case of tetradecanoylphorbol acetate [TPA], the “maximum increase in ear weight” value (mouse ear [1]) is reported as “approximately 150 % of the acetone-treated ear”.
In the case of `CC(=O)N[C@@H](CSCC=C(C)CCC=C(C)CCC=C(C)C)C(=O)O` (stereo in doubt) [AFC, N-acetyl-S-farnesylcysteine], the “effect on TPA-induced MPO activity versus time of application” value (TPA-induced MPO activity [2]) is reported as “efficacy of AFC treatment prior to, simultaneous with, or after exposure of skin to TPA”, the “edema (DNFB challenge)” value [3] is reported as “effective in reducing” and the “neutrophil infiltration (DNFB challenge)” value [3] is reported as “effective in reducing”. For the same molecule, the “skin irritation at patch site 1a” value (human skin; 20% SDS patch removed after 2 hours) was “normal skin”, the “skin irritation at patch site 1b” value (human skin; 20% SDS patch removed after 2 hours and 30 minutes) was “mild response” and the “inhibition of membrane-associated polyisoprenoid methyl transferase” value [4] was “inhibit”. For the same molecule, the “edema response (ear punch biopsy weight), AFC alone” value (mouse ear [5]) was “no effect”, the “MPO activity in contralateral vehicle-treated ear (systemic effect)” value (shortened to “MPO activity … (systemic effect)”) (TPA-induced MPO activity [6]; topical, increasing concentration on the other ear, TPA on both ears) was “no effect” and the “ED50, inhibition of TPA-induced MPO activity” value (TPA-induced MPO activity [7]; [10]) was 0.065 mg/20 μl. For the same molecule, the “inhibition of TPA-induced increases in MPO activity” value (TPA-induced MPO activity [7]; [10]) was > 80%, the “inflammation activity of AFC on its own in the Neutrophil-Infiltration Assay” value (TPA-induced MPO activity [7]; AFC alone) was “no inflammation activity of its own” and the “maximum reduction in TPA-induced edema” value (TPA-induced edema) was 80%. For the same molecule, the “reduction in dermal neutrophils (counted)” value ([8]; 1.0 mg/20 μl AFC, TPA irritation, statistically significant) was 80%, the “neutrophils observed histologically in AFC treated ear” value ([8]; TPA pretreated ears, H&E) was “substantial reduction of neutrophils” and the TPA-induced erythema (TPA-induced erythema) was “observed an effect”. For the same molecule, the chronic edema (chronic irritation) was “reduces”, the “neutrophil number (chronic irritation)” value (chronic irritation) was “reduces” and the “neutrophil, macrophage, and platelet responses in vitro” value [9] was “block some”.
In the case of `COc1ccc2c(c1)c(CC(=O)O)c(C)n2C(=O)c1ccc(Cl)cc1` [indomethasone], the “MPO activity … (systemic effect)” value (TPA-induced MPO activity [6]; mouse, in vivo) is reported as “increasing inhibition of MPO activity”.
For `C[C@@H]1C[C@H]2[C@@H]3CCC4=CC(=O)C=C[C@]4(C)[C@@]3(F)[C@@H](O)C[C@]2(C)[C@@]1(O)C(=O)CO` [dexamethasone], the “MPO activity … (systemic effect)” value (TPA-induced MPO activity [6]; mouse, in vivo) was “increasing inhibition of MPO activity”.
